Data on 13 molecules can be found in patent publication US20170349548A1, “P21-ACTIVATED KINASE INHIBITOR” (Biosystem Consulting Limited Company, priority 2014, published 2017).

Where “and” joins values, the source holds several entries; their conditions need not be identical. Equal entries are not always repeated.

In the first experiment the target is T1, Human PAK1 (Homo sapiens, UniProt Q13153).
T1 construct: purchased Promega V4479
T1 sequence (Q13153 whole entry): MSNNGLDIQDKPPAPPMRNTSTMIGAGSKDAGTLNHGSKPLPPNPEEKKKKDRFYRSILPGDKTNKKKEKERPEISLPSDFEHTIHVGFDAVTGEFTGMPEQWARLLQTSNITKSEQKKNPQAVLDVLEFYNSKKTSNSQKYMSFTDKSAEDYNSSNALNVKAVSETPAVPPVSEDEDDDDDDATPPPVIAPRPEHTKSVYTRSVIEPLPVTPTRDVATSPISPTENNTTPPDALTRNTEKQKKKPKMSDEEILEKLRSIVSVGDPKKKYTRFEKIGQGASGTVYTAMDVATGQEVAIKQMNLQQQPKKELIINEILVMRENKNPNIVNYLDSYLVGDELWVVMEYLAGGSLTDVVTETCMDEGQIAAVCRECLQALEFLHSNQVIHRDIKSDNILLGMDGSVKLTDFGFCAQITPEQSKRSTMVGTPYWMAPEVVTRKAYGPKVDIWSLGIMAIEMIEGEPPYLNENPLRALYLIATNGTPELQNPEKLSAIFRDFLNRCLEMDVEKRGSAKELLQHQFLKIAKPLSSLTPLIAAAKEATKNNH
Put plainly: PAK1 inhibitory activity, ADP-Glo kinase assay. The note with it: Human PAK1 25 ng; 10 min preincubation with test compound, 40 min with ATP/substrate mix; room temperature; luminescence; read-out: IC50 (PAK1 inhibitory activity). The format is biochemical. How it is done:
The PAK inhibitory activities of the dehydrokawain compounds, mimosine or derivatives thereof and cucurbitacin I were determined. Assay of the PAK1 inhibitory activity was carried out using an ADP-Glo™ kinase assay kit (V4479, Promega, Madison, Wis.). Human PAK1 (10 μL) at a reaction concentration of 25 ng was incubated with 5 μL of the test compounds at the respective concentrations for 10 minutes. At the beginning of the reaction, 2.5×ATP/substrate mix (10 μL) was added and incubated for 40 minutes. The reaction was terminated by adding […]. In addition, 50 μL of Kinase detection reagent was added to cause the conversion of ADP to ATP and the emission reaction of freshly synthesized ATP. After incubation for 30 minutes, the intensity of emission in each well was measured by a Microplate Reader (MTP-880Lab, Corona) for 0.5 seconds as integration time. To the blank well was added all of the ingredients except for the test compounds and enzymes. The procedure was conducted at room temperature all the time. The inhibition rate was determined as the value on the kinase activity of control to which the inhibitor was not added.
In the case of `N[C@H](CO)Cn1ccc(=O)c(O)c1` [Mimosinol, mimosinol], the IC50 stood at 30 µM.
The same measure, in the same setting: to `N[C@@H](Cn1ccc(=O)c(O)c1)C(=O)O` [Mimosine, β-[N-(3-hydroxy-4-pyridone)]-α-aminopropionic acid] belongs 37 µM; to `Oc1ccc(C=Cc2cc(O)cc(O)c2)cc1` [Resveratrol, resveratrol, reference compound], 15 µM.
On the same count and under the same terms, in the case of `N[C@@H](Cn1ccc(=O)c(O)c1)C(=O)N[C@@H](Cc1ccccc1)C(=O)N[C@@H](Cc1ccc(O)cc1)C(=O)N[C@@H](Cc1ccc(O)cc1)C(=O)O` [MFYY] it was 2.3 µM.
With `COc1cc(/C=C/c2ccccc2)oc(=O)c1` [DK, 5,6-dehydrokawain], the IC50 is 17 µM and 17.1 µM.
The same measure, in the same setting: in the case of `O=c1c(O)c(-c2ccc(O)c(O)c2)oc2cc(O)cc(O)c12` [Quercetin, quercetin, reference compound] it was 340 µM; in that of `N[C@@H](Cn1ccc(=O)c(O)c1)C(=O)N[C@@H](Cc1ccccc1)C(=O)N[C@@H](Cc1ccccc1)C(=O)N[C@@H](Cc1ccc(O)cc1)C(=O)O` [MFFY], 0.13 µM.
Still for that read-out and setting: to `COc1cc(/C=C/c2ccc(OC)c(OC)c2)oc(=O)c1` [H1, 6-(3,4-dimethoxystyryl)-4-methoxy-2H-pyran-2-one] belongs 1.6 µM; to `COc1cc(CCc2ccccc2)oc(=O)c1` [DDK, dihydro-5,6-dehydrokawain], 10 µM and 10.3 µM.
Still for that read-out and setting: in the case of `N[C@@H](Cn1ccc(=O)c(O)c1)C(=O)N[C@@H](Cc1ccccc1)C(=O)N[C@@H](Cc1c[nH]c2ccccc12)C(=O)N[C@@H](Cc1ccc(O)cc1)C(=O)O` [MFWY] it was 0.6 µM; in that of `COc1cc(CCc2ccc(O)c(O)c2)oc(=O)c1` [H3, 6-(3,4-dihydroxyphenethyl)-4-methoxy-2H-pyran-2-one], 2 µM.
On to `COc1cc(CCc2ccc(OC)c(OC)c2)oc(=O)c1` [H2, 6-(3,4-dimethoxyphenethyl)-4-methoxy-2H-pyran-2-one], for which the IC50 was determined as 1.2 µM.

Still in this experiment, the particulars now being: IC50 (PAK1 inhibitory activity), Human PAK1 25 ng; 10 min preincubation with test compound, 40 min with ATP/substrate mix; room temperature; luminescence.
Regarding `CC(C)(O)/C=C/C(=O)[C@](C)(O)[C@H]1[C@H](O)C[C@@]2(C)[C@@H]3CC=C4C(C=C(O)C(=O)C4(C)C)[C@]3(C)C(=O)C[C@]12C` (stereo partly shown) [Cucurbitacin I, cucurbitacin I], the half-inhibitory concentration (IC50) turned out to be 19 µM.
